Molecular target: SARS-CoV-2 3CL^pro (Severe acute respiratory syndrome coronavirus 2, UniProt P0DTD1)
Format: cell-based

**Q.** For GRL-0496, which “Effect on luciferase reporter activity / 3CL^pro inhibition (in words)” value is on record?
**A.** clearly inhibited SARS-CoV-2 3CL^pro

From paper PMC7911889 (Viruses, 2021)
